In assay [1] the test system is U46619-induced platelet aggregation. As to the kind of experiment: Antiplatelet aggregation activity (U46619-induced, turbidity, Lumi-aggregometer). Type of assay: cell-based. The settings on record: 20 μM, rabbit platelets, n=8. The method, then: 4. […] After centrifuging at […] for 10 mins, the supernatant is platelet-rich plasma (PRP). The platelet suspension is obtained from EDTA-anticoagulated PRP, and the platelet granules are finally suspended in the Tyrode's solution. […] The turbidity is measured at 37° C. by Lumi-aggregometer connected with two dual channel recorders as the aggregation.

The next assay relates to RAW 264.7 cells. As to the kind of experiment: Inhibition of RANKL-induced osteoclast differentiation (TRAP staining). In kind it is cell-based. The settings on record: 5 μM, 5 days; for TRAP-Positive Cells: RANKL 10 μg/ml, n=5.
The subject of assay [2] is C57BL/6J mice. As to the kind of experiment: The lipid-lowering effect in C57BL/6J mice (high-fat diet). The following applies: HFD, after 21 days. Type of assay: in vivo. The method, then:
(§1) 8-week C57BL/6J mice are divided into standard diet (STD) group and the high-fat diet (HFD) group. In the HFD group, the KMUP-1 HCl salt (1, 2.5 and 5 mg/kg), the simvastatin (5 mg/kg), the KMUP-1-Nicotinic acid complex (1 and 5 mg/kg), the KMUP-1-Simvastatinic acid complex (1 and 5 mg/kg), KMUP-1-Gemfibrozil complex (2.5 mg/kg), KMUP-1-Fibric acid complex (2.5 mg/kg), KMUP-1-γ-polyglutamic acid complex (2.5 mg/kg) and KMUP-1-Citric acid complex (2.5 mg/kg) are administered orally. After 21 days, the amounts (mg/dl) of the triglyceride (TG), the total cholesterol (tot.-C), the high density lipoprotein cholesterol (HDL-C), the low density lipoprotein cholesterol (LDL-C) and the serum glucose of six mice for each group are measured as shown in Tables 2 and 3.

For the next assay, the system named is H1N1 virus. In kind it is cell-based. The following applies: MDCK culture infected with H1N1 virus; for IC50: n=6.
Assay [3] has as its system STZ-induced diabetic rats. Briefly: Change of insulin and fasting blood glucose after administration, STZ-induced diabetic rats. Type of assay: in vivo. The settings on record: 4 mg/kg. The method, then: Nateglinide, repaglinide or the placebo is administered on day 1 before one hour of the breakfast, and the KMUP-1/KMUP-1-Nateglinide or KMUP-1-Repaglinide are orally administered at 1, 2, 3, 4, 5 and 6 hrs respectively. The amount of the serum glucose (mg/dl), the amount of the serum insulin (mg/dl), the body weight (g) and the change of the body weight are measured.

Assay [4] deals with C57BL/6J mice. As to the kind of experiment: The amount of the serum glucose and insulin in C57BL/6J mice (high-fat diet). Type of assay: in vivo. Details: The amount of serum insulin: unit not given here. The settings on record: 1 mg/kg orally, HFD, after 21 days. Here is the method:
as §1

The test system of assay [5] is STZ-induced diabetic rats. Briefly: Serum glucose and body weight in streptozosin (STZ)-induced diabetic rats. In kind it is in vivo. The following applies: 5 mg/kg orally, after 21 days. Here is the method:
2. The effect of KMUP-1 on decreasing the amount of the serum glucose in streptozosin (STZ)-induced diabetic rats
60 mg/kg of streptozosin is injected intravenously for inducing the STZ-induced rats, and the KMUP-1 HCl salt (0.5, 1.5, 2.5 and 5 mg/kg) and KMUP-1-Simvastatinic acid (5 mg/kg) are administered orally. After 21 days, the amount of the serum glucose (mg/dl), the amount of the serum insulin (mg/dl), the body weight (g) and the change of the body weight are measured.

In assay [6] the test system is monocrotaline (MCT)-treated rats. As to the kind of experiment: Pulmonary artery blood pressure in monocrotaline (MCT)-treated rats. Type of assay: in vivo, male Wistar rats. The method, then:
5. the monocrotaline (MCT)-treated rats show the […] pulmonary aterial hypertension
Pulmonary aterial hypertension in MCT-treated rats is caused on day 21 after the intraperitoneal injection. Orally administered KMUP-1 HCl salt (2.5 mg/kg), simvastatin (2.5 mg/kg), KMUP-1-nicotinic acid complex (2.5 mg/kg), KMUP-1-Citric acid complex (2.5 mg/kg), KMUP-1-Simvastatinic acid complex (2.5 mg/kg) and KMUP-1-γ-Polyglutamic acid complex (2.5 mg/kg), or the inhalated KMUP-1-PGI2 (0.1 mM) every day may inhibit the male Wistar rats treated with MCT, which show the effect of decreasing the pulmonary artery blood pressure (PABP).

The next assay concerns TGF-β. As to the kind of experiment: Bleomycin-induced lung fibrosis in mice, TGF-β expression by EIA. In kind it is in vivo. The following applies: bleomycin 60 mg/kg. The method, then:
6. KMUP-1 salts inhibit the lung fibrosis in mice induced by bleomycin (BM) mediated via transforming growth factor beta (TGF-β) expression in lung The increased amount of the synthetic collagen and the generation of the macrophage in alveolus may facilitate the formulation of TGF-β, and the expression of TGF-β is looked as a biomarker of the lung fibrosis. […] The state of the TGF-β expression in the irrigation solution is measured by the enzyme immunoassay (EIA).

Turning to `COc1ccc2c(c1)c(CC(=O)O)c(C)n2C(=O)c1ccc(Cl)cc1` [Indomethacin, indomethacin, reference compound], the “The ratio of the antiplatelet aggregation” value in assay [1] was 87 ± 8.3 %.

Regarding `Cn1c(=O)c2c(ncn2CCN2CCN(c3ccccc3Cl)CC2)n(C)c1=O` [KMUP-1, 7-[2-[4-(2-chlorobenzene)piperazinyl]ethyl]-1,3-dimethylxanthine], in the assay with RAW 264.7 cells, the “TRAP-positive cell count caused by RANKL (in words)” value is recorded as “suppressed the TRAP-positive cell count”.

For the compound `CC(C)c1c(C(=O)Nc2ccccc2)c(-c2ccccc2)c(-c2ccc(F)cc2)n1CC[C@@H](O)C[C@@H](O)CC(=O)O.Cn1c(=O)c2c(ncn2CCN2CCN(c3ccccc3Cl)CC2)n(C)c1=O` [KMUP-1-Atorvastatinic acid, KMUP-1-Atorvastatinic acid complex], the “TRAP-Positive Cells” value in the assay with RAW 264.7 cells was found to be 78 ± 3.

In the assay with C57BL/6J mice [2] (2.5 mg/kg orally), `CC(C)(Oc1ccc(C(=O)c2ccc(Cl)cc2)cc1)C(=O)O.Cn1c(=O)c2c(ncn2CCN2CCN(c3ccccc3Cl)CC2)n(C)c1=O` [KMUP-1-Fibric acid, KMUP-1-fibric acid complex] gave an HDL-C of 98.4 ± 1.3 mg/dL, an LDL-C of 18.4 ± 2.2 mg/dL, a TG of 80.2 ± 3.2 mg/dL and a tot.-C of 132.7 ± 1.3 mg/dL.

In the assay on C57BL/6J mice [2] (2.5 mg/kg orally), `Cc1ccc(C)c(OCCCC(C)(C)C(=O)O)c1.Cn1c(=O)c2c(ncn2CCN2CCN(c3ccccc3Cl)CC2)n(C)c1=O` [KMUP-1-Gemfibrozil, KMUP-1-gemfibrozil complex] had an HDL-C of 98.7 ± 1.8 mg/dL, an LDL-C of 18.2 ± 1.8 mg/dL, a TG of 79.2 ± 4.6 mg/dL and a tot.-C of 130.7 ± 1.7 mg/dL.

By IC50 is commonly meant the concentration needed to halve the response being measured. For the compound `CC[C@H](C)C(=O)O[C@H]1C[C@@H](C)C=C2C=C[C@H](C)[C@H](CC[C@@H](O)C[C@@H](O)CC(=O)O)[C@H]21.Cn1c(=O)c2c(ncn2CCN2CCN(c3ccccc3Cl)CC2)n(C)c1=O` [KMUP-1-Lovastatinic acid, KMUP-1-Lovastatinic acid complex], the IC50 in the assay on H1N1 virus is 1.9 µg/mL. Moreover, in the assay with RAW 264.7 cells, the “TRAP-Positive Cells” value worked out at 73 ± 6.

For the compound `CC(C)[C@H]1CC[C@H](C(=O)N[C@H](Cc2ccccc2)C(=O)O)CC1.Cn1c(=O)c2c(ncn2CCN2CCN(c3ccccc3Cl)CC2)n(C)c1=O` [KMUP-1-Nat, KMUP-1-Nateglinide Complex], the figures for the “The change of the fasting blood glucose after administration” value (“The change of the fasting blood glucose” for short) in [3] (1 hr), in assay [3] (2 hr) and in [3] (6 hr) were 4.67 ± 0.7 mg/dL, 0.8 ± 0.4 mg/dL and -0.2 ± 0.3 mg/dL, respectively. For the same compound, the “The change of the insulin after administration” value (“The change of the insulin” below) in [3] (1 hr) worked out at 38 ± 2.7 U/mL; in assay [3] (2 hr), 51.3 ± 4.3 U/mL; in [3] (3 hr), 31.8 ± 3.7 U/mL; in [3] (4 hr) it was 21.8 ± 5.3 U/mL; in assay [3] (6 hr) it was 3.4 ± 0.6 U/mL.

`CC[C@H](C)C(=O)O[C@H]1C[C@H](O)C=C2C=C[C@H](C)[C@H](CC[C@@H](O)C[C@@H](O)CC(=O)O)[C@H]21.Cn1c(=O)c2c(ncn2CCN2CCN(c3ccccc3Cl)CC2)n(C)c1=O` [KMUP-1-Pravastatinic acid, KMUP-1-Pravastatinic acid complex] returned a concentration for half-maximal inhibition (IC50) in the assay with H1N1 virus of 2.1 µg/mL.

As for `CCC(C)(C)C(=O)O[C@H]1C[C@@H](C)C=C2C=C[C@H](C)[C@H](CC[C@@H](O)C[C@@H](O)CC(=O)O)[C@H]21.Cn1c(=O)c2c(ncn2CCN2CCN(c3ccccc3Cl)CC2)n(C)c1=O` [KMUP-1-Simvastatinic acid, KMUP-1-Simvastatinic acid complex], in the assay with C57BL/6J mice [2] (5 mg/kg orally), the HDL-C turned out to be 108.4 ± 1.3 mg/dL, the LDL-C worked out at 17.3 ± 1.4 mg/dL, the TG was 81.2 ± 4.4 mg/dL and the tot.-C was determined as 129.7 ± 1.4 mg/dL. In addition, in the assay with C57BL/6J mice [4], the “The amount of serum glucose” value worked out at 117.3 ± 3.8 mg/dL and the “The amount of serum insulin” value is on record as 0.85 ± 0.17. Moreover, in assay [5], the “The amount of the serum glucose” value worked out at 194.2 ± 16.1 mg/dL. In addition, the PABP in assay [6] (2.5 mg/kg/day p.o.) came to 12 ± 1.3 mmHg. Also, the “Changing % of the lung TGF-β” value with TGF-β (2.5 mg/kg orally) was 45 ± 4.5 %. In the assay with H1N1 virus (in glucose solution), the “growth of the virus (in words)” value is recorded as “can inhibit the growth of the virus”. The same compound had an IC50 with H1N1 virus of 1.8 µg/mL. Besides, the “TRAP-Positive Cells” value in the assay on RAW 264.7 cells is on record as 72 ± 5.

With `CC(C)[C@H]1CC[C@H](C(=O)N[C@H](Cc2ccccc2)C(=O)O)CC1` [Nat, Nateglinide, reference compound], the “The change of the fasting blood glucose” value was 4.7 ± 0.6 mg/dL in assay [3] (1 hr), 0.3 ± 0.2 mg/dL in assay [3] (2 hr) and -0.2 ± 0.3 mg/dL in [3] (6 hr). Also, the “The change of the insulin” value in [3] (1 hr) came out at 42.5 ± 4.2 U/mL; in [3] (2 hr) it was 49.3 ± 3.4 U/mL; in assay [3] (3 hr) it was 24.4 ± 4.6 U/mL; in assay [3] (4 hr), 17.8 ± 2.8 U/mL; in [3] (6 hr), 4.4 ± 0.6 U/mL.

Turning to `CCOc1cc(CC(=O)N[C@@H](CC(C)C)c2ccccc2N2CCCCC2)ccc1C(=O)O` [Rep, Repaglinide, reference compound], the “The change of the fasting blood glucose” value in assay [3] (1 hr) was 3.2 ± 0.8 mg/dL; in [3] (2 hr) it was 0.6 ± 0.1 mg/dL; in assay [3] (6 hr), -0.1 ± 0.4 mg/dL. In addition, the “The change of the insulin” value in assay [3] (1 hr) is given as 47.5 ± 3.7 U/mL; in assay [3] (2 hr), 49.3 ± 3.4 U/mL; in [3] (3 hr), 24.4 ± 4.6 U/mL; in assay [3] (4 hr) it was 19.8 ± 3.6 U/mL; in [3] (6 hr) it was 4.8 ± 0.4 U/mL.

With `CCC(C)(C)C(=O)O[C@H]1C[C@@H](C)C=C2C=C[C@H](C)[C@H](CC[C@@H]3C[C@@H](O)CC(=O)O3)[C@H]21` [Simvastatin, simvastatin, reference compound], in the assay with C57BL/6J mice [2] (5 mg/kg orally), the HDL-C worked out at 103.18 ± 2.5 mg/dL, the LDL-C was 15.3 ± 1.3 mg/dL, the TG stood at 82.67 ± 6.3 mg/dL and the tot.-C was 133.67 ± 4.3 mg/dL. The “Changing % of the lung TGF-β” value in the assay on TGF-β (5 mg/kg orally) is on record as 40 ± 4.3 %. The “TRAP-Positive Cells” value in the assay on RAW 264.7 cells amounted to 85 ± 7.

As for KMUP-1-PGI2 complex, in assay [6] (0.1 mM (inhalation)), the PABP is 10 ± 0.2 mmHg.

With KMUP-1-Repaglinide Complex, the “The change of the fasting blood glucose” value is 5.7 ± 0.8 mg/dL in [3] (1 hr), 0.5 ± 0.2 mg/dL in assay [3] (2 hr) and -0.3 ± 0.1 mg/dL in assay [3] (6 hr). Also, the “The change of the insulin” value was 39.5 ± 3.8 U/mL in assay [3] (1 hr); 47.3 ± 2.2 U/mL in [3] (2 hr); 27.4 ± 2.8 U/mL in assay [3] (3 hr); 14.8 ± 3.7 U/mL in assay [3] (4 hr); 2.8 ± 0.5 U/mL in assay [3] (6 hr).

“KMUP-1-γ-polyglutamate complex [KMUP-1-γ-polyglutamic acid]”: in the assay with C57BL/6J mice [2] (2.5 mg/kg orally), the HDL-C worked out at 97.3 ± 1.6 mg/dL, the LDL-C stood at 16.5 ± 0.9 mg/dL, the TG is 78.2 ± 3.6 mg/dL and the tot.-C came out at 129.4 ± 1.4 mg/dL. The same compound showed a PABP in assay [6] (2.5 mg/kg/day p.o.) of 11 ± 0.6 mmHg. The “Changing % of the lung TGF-β” value in the assay with TGF-β (2.5 mg/kg orally) is 42 ± 1.6 %.

For the origin of these results see patent US8470805B2, “Processes for preparing piperazinium salts of KMUP and use thereof” (Kaohsiung Medical University, priority 2009, dated 2013).
